Reference: patent US20240368168A1, “SARM1 ENZYME ACTIVITY INHIBITOR AND APPLICATION THEREOF” (ARTIVILA BIOPHARMA, priority 2021, published 2024)

Legend:
dN-SARM1 protein [1] = target: T1, dN-SARM1 protein (Homo sapiens, UniProt Q6SZW1); experiment: In vitro biochemical assay for inhibiting SARM1 enzymatic activity (% inhibition rate), PC6 fluorescence method; settings: 20 μM compound; 50 μM NAD, 50 μM PC6, 50 μM NMN activator
T1 construct: the N-terminal mitochondrial localization signal peptide of SARM1 was removed
T1 sequence (Q6SZW1 28-724): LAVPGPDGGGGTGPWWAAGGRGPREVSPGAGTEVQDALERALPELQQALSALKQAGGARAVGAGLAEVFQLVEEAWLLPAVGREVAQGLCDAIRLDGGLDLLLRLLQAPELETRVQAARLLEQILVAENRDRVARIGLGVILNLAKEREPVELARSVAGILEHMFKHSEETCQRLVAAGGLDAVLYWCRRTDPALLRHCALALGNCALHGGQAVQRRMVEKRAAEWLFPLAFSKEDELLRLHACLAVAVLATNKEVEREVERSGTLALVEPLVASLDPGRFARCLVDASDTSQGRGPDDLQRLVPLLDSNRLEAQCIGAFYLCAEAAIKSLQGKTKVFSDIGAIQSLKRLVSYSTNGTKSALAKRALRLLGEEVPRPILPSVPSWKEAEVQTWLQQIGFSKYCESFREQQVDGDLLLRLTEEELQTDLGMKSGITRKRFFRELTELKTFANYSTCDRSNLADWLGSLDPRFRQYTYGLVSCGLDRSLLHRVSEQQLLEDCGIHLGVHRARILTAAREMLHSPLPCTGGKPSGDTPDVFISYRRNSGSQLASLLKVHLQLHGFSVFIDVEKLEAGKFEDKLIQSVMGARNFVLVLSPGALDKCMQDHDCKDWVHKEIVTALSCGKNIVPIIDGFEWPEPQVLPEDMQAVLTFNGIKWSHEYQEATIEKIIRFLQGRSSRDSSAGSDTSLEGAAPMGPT
Experimental: The compounds were subjected to PC6 fluorescence method measurement [Chinese Patent 202010528147.3] using the dN-SARM1 protein obtained through “(4) Protein extraction” in “Expression and purification of SARM1 protein” in the above biological activity example 1.
First, 0.05 μg/ml dN-SARM1 and 20 μM compound were incubated in 50 mM Tris-HCl (pH 7.5) solution for 10 min, and then added with 50 μM NAD and 50 μM PC6 as substrate and 50 μM NMN as activator for 30 minutes of reaction at room temperature. The concentration of each component was the final concentration in the reaction system.
During the reaction, PC6 fluorescence spectrum dynamics were detected by a microplate reader, wherein the excitation wavelength and emission wavelength for detection were 390 nm and 520 nm, respectively. Finally, the reaction rate was used to express the activity of the protein. The higher the reaction rate, the stronger the activity of the protein and the lower the inhibitory efficiency of the compound.

dN-SARM1 protein [2] = target: T1, dN-SARM1 protein; experiment: In vitro biochemical assay for inhibiting SARM1 enzymatic activity (IC50), PC6 fluorescence method; settings: 50 μM NAD, 50 μM PC6, 50 μM NMN activator
In short: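 Activity read as the rate of PC6 fluorescence change (390 nm excitation, 520 nm emission) over a 30 min room-temperature reaction containing final 50 μM each of NAD, PC6 and NMN activator. Enzyme, 0.05 μg/ml dN-SARM1 in 50 mM Tris-HCl pH 7.5, first incubated 10 min with compound diluted serially from 200 μM; IC50 calculated.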

[3] = target: T2, SARM1 protein in iSARM1 (HEK293) cells (Homo sapiens, UniProt Q6SZW1); experiment: Inhibitory activity in inducible SARM1 overexpressing cell line, intracellular cADPR level; type: cell-based; settings: activator CZ-48 100 μM, cADPR content
T2 construct: The full-length SARM1 was synthesized into the pUC57 plasmid by WZ Biosciences Inc., and PCR was performed using pUC57-SARM1 as a DNA template
T2 sequence (Q6SZW1 28-724): T1 sequence (Q6SZW1 28-724)
Experimental: In this example, the gene sequence of SARM1 was amplified using PCR, and constructed into pInducer20-neo plasmid. pInducer20-SARM1 virus was packaged in a liposome and infected HEK293 to obtain an inducible SARM1-overexpressing cell line, which was labeled as iSARM1 (HEK293). The specific preparation was as follows:
First, a 96-well culture plate was treated with 0.05 mg/ml polylysine for 5 minutes and washed once with PBS. 3×10^4 iSARM1 (HEK293) cells were plated into the 96-well plate and cultured overnight in a 37° C. and 5% incubator. The next day, the cells were added with an inhibitor with a final concentration of 50 μM, incubated in the incubator for 1.5 hours, added with activator CZ-48 with a final concentration of 100 μM, and incubated for 16 hours. Meanwhile, the cells without adding CZ-48 or without adding drug were set as control group. Finally, the intracellular cADPR level was detected to represent the activity of SARM1, and the inhibition rate of SARM1 in cells by 50 μM inhibitor was calculated.
The cADPR measurement was performed as follows. First, the cells were washed once with PBS, and added with 150 μl of pre-cooled 0.6M perchloric acid (PCA) to quickly lyse the cells and precipitate the protein. The PCA supernatant was transferred to a 1.5 ml centrifuge tube. The protein in the culture medium was dissolved again with 100 μl of 1M NaOH. The supernatant was added with 0.5 ml of organic reagent mixture (trioctylamine:chloroform=1:3) to extract PCA from water. After sufficient shaking, the mixture was centrifuged at 12,000 rpm for 10 minutes. The solution was divided into 3 layers: the upper aqueous phase, containing the small molecules of interest; the lower organic phase, in which PCA was dissolved; and a thin protein layer between the upper and lower layers. The upper layer was transferred to a new centrifuge tube, added with 1M Tris-Mg at a ratio of 1:100 (1M Tris (pH 8.0): 1M MgCl2=9:1), added with NADase at a ratio of 1:250, and treated at 37° C. overnight to remove NAD^+ from the mixed solution. After the treatment was completed, the mixed solution was filtered using Millipore's 10 K 96-well filter plate to remove NADase.
The cADPR content in the solution was determined through Cycling analysis method. The specific steps were as follows: 20 μl of the sample to be tested or the cADPR standard was taken and added to a 96-well opaque white plate. Preparation of reaction solution: 9.6 ml of PBS (pH 7.4), 200 μl of ethanol, 150 μl of 1 mg/ml AD, 10 μl of 10 mM FMN, 5 μl of 18 mg/ml Diaphorase, 10 μl of 10 mM Resazurin, and 100 μl of 1M Nam. Half of the reaction solution was divided and added with 0.2 μg/ml cyclase. The reaction solution without adding cyclase was used as control experiment. Each sample was divided into two groups, 3 replicates in each group. The reaction solutions containing or not containing cyclase were added to each group to perform the reaction. The reaction kinetic curve within 30 minutes was recorded (Ex:Em=544/599). The average slope of the reaction was calculated. Conversion was performed according to cADPR standard to obtain the accurate cADPR content. A curve of intracellular cADPR content vs corresponding inhibitor concentration was plotted. The half inhibitory concentration of the inhibitor was calculated.

| inhibition at 20 µM (dN-SARM1 protein [1]) | IC50 (dN-SARM1 protein [2]) | EC50 [3] | SMILES |
| --- | --- | --- | --- |
| > 90% | – | – | CNc1ccc2ncc(Br)n2n1 [Compound 1, 3-bromo-N-methylimidazo[1,2-b]pyridazin-6-amine] |
| > 90% | – | – | CN(C(=O)C(F)(F)F)c1ccc2ncc(NC(=O)COCCOCCOCC(=O)Nc3cnc4ccc(N(C)C(=O)C(F)(F)F)cn34)n2c1 [Compound 142, N,N′-(3,3′-((2,2′-((oxybis(ethane-2,1-diyl))bis(oxy))bis (acetyl))bis(azadialkyl))bis(imidazo[1,2-a]pyridin-6,3-diyl))bis(2,2,2-trifluoro-N-methylacetamide)] |
| 50 to 89% | – | – | CC(C)(C)OC(=O)Nc1ccc2ncc(C(=O)NCCOCCOCCNC(=O)c3cnc4ccc(NC(=O)OC(C)(C)C)cn34)n2c1 [Compound 139] |
| > 90% | – | – | Nc1cn2c(-c3ccccc3)cnc2cc1Cl [Compound 19] |
| – | 1000 to 10000 nM | 1000 to 10000 nM | CN(C(=O)OC(C)(C)C)c1ccc2ncc(-c3cccc(C(=O)NC[C@@H]4CCO4)c3)n2c1 [Compound 246] |
| – | < 1000 nM | < 1000 nM | CN(C(=O)OC(C)(C)C)c1ccc2ncc(-c3cccc(NC(=O)COCCOCC(=O)Nc4cccc(-c5cnc6ccc(N(C)C(=O)OC(C)(C)C)cn56)c4)c3)n2c1 [Compound 116, ((((((2,2′-(ethane-1,2-diylbis(oxy))bis(acetyl))bis(azadialkyl))bis(31-phenylene))bis(imidazo[1,2-a]pyridin-3,6-diyl))bis(tert butylmethylcarbamate)] |
| – | < 1000 nM | 1000 to 10000 nM | CN(C(=O)OC(C)(C)C)c1ccc2ncc(-c3cccc(N)c3)n2c1 [Compound 2] |
| – | 1000 to 10000 nM | < 1000 nM | C=CCN(C(=O)OC(C)(C)C)c1ccc2ncc(-c3cccc(N)c3)n2c1 [Compound 211, tert-butyl allyl(3-(3-aminophenyl)imidazo[1,2-a]pyridin-6-yl)carbamate] |
| – | 1000 to 10000 nM | < 1000 nM | CN(C(=O)OC(C)(C)C)c1ccc2ncc(-c3cccc(NC(=O)c4ccccc4)c3)n2c1 [Compound 249] |
| – | < 1000 nM | 1000 to 10000 nM | CN(C(=O)C1CC1)c1ccc2ncc(-c3cccc(NC(=O)C4CCOCC4)c3)n2c1 [Compound 307] |
| – | < 1000 nM | < 1000 nM | CNc1ccc2ncc(-c3cccc(NC(=O)C4CCOCC4)n3)n2c1 [Compound 171] |
| – | < 1000 nM | 1000 to 10000 nM | CNc1ccc2ncc(-c3ccccc3)n2c1 [Compound 65, N-methyl-3-phenylimidazo[1,2-a]pyridin-6-amine] |
| – | 1000 to 10000 nM | < 1000 nM | CN(C(=O)OC(C)(C)C)c1ccc2ncc(C3CCCCC3)n2c1 [Compound 84, tert-butyl (3-cyclohexylimidazo[1,2-a]pyridin-6-yl)(methyl)carbamate] |
| – | < 1000 nM | < 1000 nM | CN(C(=O)OC(C)(C)C)c1ccc2ncc(-c3cccc(NC(=O)[C@H]4CCOC4)c3)n2c1 [Compound 239] |
| – | 1000 to 10000 nM | < 1000 nM | C=CCN(C(=O)OC(C)(C)C)c1ccc2ncc(-c3cccc(NC(=O)C4CCOCC4)c3)n2c1 [Compound 213, tert-butyl allyl(3-(3-(tetrahydro-2H-pyran-4-carboxamido)phenyl)imidazo[1,2-a]pyridin-6-yl)carbamate] |
| – | 1000 to 10000 nM | 1000 to 10000 nM | CNC(=O)c1cccc(-c2cnc3ccc(N(C)C(=O)OC(C)(C)C)cn23)c1 [Compound 276] |
| – | < 1000 nM | 1000 to 10000 nM | CC(=O)Nc1cccc(-c2cnc3ccc(N(C)C(=O)OC(C)(C)C)cn23)c1 [Compound 96, tert-butyl (3-(3-acetylaminophenyl)imidazo[1,2-a]pyridin-6-yl)(methyl)carbamate] |
| – | 1000 to 10000 nM | 1000 to 10000 nM | CNc1ccc2ncc(-c3cccc(NC(=O)c4ccccc4)c3)n2c1 [Compound 251] |
| – | 1000 to 10000 nM | 1000 to 10000 nM | CN(C(=O)OC(C)(C)C)c1ccc2ncc(-c3cccc4[nH]ccc34)n2c1 [Compound 275] |
| – | < 1000 nM | 1000 to 10000 nM | CN(C(=O)OC(C)(C)C)c1ccc2ncc(-c3cccc4c3C(=O)NC4)n2c1 [Compound 164] |
| – | 1000 to 10000 nM | 1000 to 10000 nM | Nc1cccc(/C=C/CNc2ccc3ncc(-c4ccccc4)n3c2)c1 [Compound 220] |
| – | 1000 to 10000 nM | < 1000 nM | CN(C(=O)OC(C)(C)C)c1ccc2ncc(-c3ccc(S(N)(=O)=O)cc3)n2c1 [Compound 6] |
| – | < 1000 nM | < 1000 nM | CNc1ccc2ncc(-c3cc4cc[nH]c4cn3)n2c1 [Compound 162, N-methyl-3-(1H-pyrrolo[2,3-c]pyridin-5-yl)imidazo[1,2-a]pyridin-6-amine] |
| – | 1000 to 10000 nM | < 1000 nM | CN(C(=O)OC(C)(C)C)c1ccc2ncc(-c3cccs3)n2c1 [Compound 12] |
| – | 1000 to 10000 nM | < 1000 nM | CN(C(=O)OC(C)(C)C)c1ccc2ncc(-c3cccc(N(C)C(=O)C4CCOCC4)c3)n2c1 [Compound 158, tert-butyl methyl (3-(3-(N-methyltetrahydro-2H-pyran-4-carboxamido)phenyl)imidazo[1,2-a]pyridin-6-yl)carbamate] |
| – | 1000 to 10000 nM | < 1000 nM | O=C(Nc1cccc(-c2cnc3ccc(N4CCOCC4)cn23)c1)[C@H]1C[C@H](N2CCCCC2)C1 [Compound 227] |

| SMILES | inhibition at 20 µM (dN-SARM1 protein [1]) | IC50 (dN-SARM1 protein [2]) | EC50 [3] |
| --- | --- | --- | --- |
| CN1CCN(c2ccc3nccn3c2)CC1 [Compound 35] | 50 to 89% | – | – |
| CCOC(=O)c1ccc(-c2cnc3ccc(NC(=O)OC(C)(C)C)cn23)s1 [Compound 126, ethyl 5-(6-((tert-butoxycarbonyl)amino)imidazo[1,2-a]pyridin-3-yl)thiophen-2-carboxylate] | > 90% | – | – |
